From patent US20150157036A1, “Processed Cheese With Natural Antibacterial And Antimycotic Components And Method Of Manufacturing” (KRAFT FOODS GROUP BRANDS LLC, priority 2013, published 2015)
Where “and” joins values, the source holds several entries; their conditions need not be identical. Equal entries are not always repeated.

Tests used:
mold = assay: Shelf life of processed cheese slices, visible mold during storage; assay type: cell-based; settings: processed cheese slices containing about 4.8 ppm natamycin; stored at 45° F.; control without natamycin showed visible mold at three months
Source text: Processed cheese slices were produced containing about 4.8 ppm natamycin (Natamax SF from Danisco).

[1] = tested on: mold cocktail of Phoma spp., Geotrichum spp., Cladosporium spp., and Penicillium spp.; assay: Mold challenge study of processed cheese slices inoculated with a mold cocktail; assay type: cell-based
Experimental: In some approaches, the processed cheese includes an amount of natural antimycotic effective to prevent mold growth for at least about three months, in another aspect at least about four months, in another aspect at least about five months, in another aspect at least about six months, and in yet another aspect at least about seven months, when the processed cheese is stored at about 1 to about 10° C. The efficacy of the natamycin in the processed cheese product can be determined by conducting a mold challenge study, where samples of the processed cheese are inoculated with a known quantity of mold spores, such as 90 cfu/g or 500 cfu/g, and inspecting the samples for visible mold growth during storage at 40 to 45° F.
Natamycin (Natamax SF from Danisco) was incorporated into processed cheese (prior to the cooking step) at concentrations of 7 ppm and 15 ppm. The processed cheese was then submitted to a mold challenge study. The processed cheese was inoculated with a mold cocktail (spores in liquid media) of Phoma spp., Geotrichum spp., Cladosporium spp., and Penicillium spp. (which represent common types of mold) at 90 spores per 19 gram slice. The samples are inoculated by spreading the cocktail on top of cheese slices. A control was not inoculated. […] The detectable level of natamycin was determined by HPLC. […]

[2] = Detectable level of natamycin in processed cheese by HPLC during storage; assay type: physicochemical; settings: for detectable natamycin concentration in the product: by six months, stored at 45° F.; for natamycin in processed cheese, on average: three days after producing the processed cheese, four samples
Experimental: Natamycin (Natamax SF from Danisco) was incorporated into processed cheese (prior to the cooking step) at 15 ppm. Cultured dairy component containing nisin was incorporated into all products at 8 percent based on the total weight of the processed cheese. Samples of the processed cheese were inoculated at 100 cfu/g and 500 cfu/g. The detectable level of natamycin was determined by HPLC.

[3] = average of samples, dosage level 15 ppm, storage at 45° F.
[4] = dosage level 15 ppm before cooking, 8 percent cultured dairy component containing nisin, storage at 45° F., HPLC, single samples

## C[C@@H]1C/C=C/C=C/C=C/C=C/[C@H](O[C@@H]2O[C@H](C)[C@@H](O)[C@H](N)[C@@H]2O)C[C@@H]2O[C@](O)(C[C@@H](O)C[C@H]3O[C@@H]3/C=C/C(=O)O1)C[C@H](O)[C@H]2C(=O)O [Natamycin, natamycin]
mold
  visible mold at five months of shelf life: no visible mold
[1]; 10 ppm and 15 ppm natamycin plus 8 percent cultured dairy component containing nisin, inoculated with 500 cfu/g or 9,500 spores per slice
  shelf life relative to control: almost double that of control
[1]; processed cheese with 7 ppm or 15 ppm natamycin added before cooking, 90 spores per 19 gram slice, stored at 45° F.
  extension of shelf life versus control that lacked mold inhibitor: at least six months longer than a control
[2]; 7 ppm sample, HPLC
  detectable natamycin concentration in the product: 0.62 ppm
[2]; 15 ppm sample, HPLC
  detectable natamycin concentration in the product: 4.89 ppm
[2]; [3]
  Detected Natamycin Concentration (ppm) after Four Months, average: Average = 3.39 ppm
  Detected Natamycin Concentration (ppm) after One Week, average: Average = 4.68 ppm
  Detected Natamycin Concentration (ppm) after Two Months, average: Average = 5.93 ppm
[2]; [4]
  Detected Natamycin Concentration (ppm) after Four Months: 3.07 ppm and 3.39 ppm and 3.64 ppm and 2.97 ppm and 3.37 ppm and 3.28 ppm and 3.14 ppm
  Detected Natamycin Concentration (ppm) after One Week: 4.61 ppm and 4.63 ppm and 4.80 ppm
  Detected Natamycin Concentration (ppm) after Three Months: 6.87 ppm and 6.34 ppm and 7.46 ppm and 6.13 ppm and 6.84 ppm and 6.78 ppm and 7.36 ppm
  Detected Natamycin Concentration (ppm) after Two Months: 6.73 ppm and 4.62 ppm and 6.32 ppm and 5.34 ppm and 5.91 ppm and 6.81 ppm and 5.67 ppm
[2]; processed cheese with natamycin and cultured dairy component, HPLC
  change of the detectable quantity of natamycin during storage: increase in months 2 and 3 of storage and then decrease in month 4
[2]; starting with 10 ppm, 8 percent cultured dairy component containing nisin
  natamycin in processed cheese, on average: 2.8 ppm
[2]; starting with 15 ppm, 8 percent cultured dairy component containing nisin
  natamycin in processed cheese, on average: 4.9 ppm
